Assay results from patent US8450357B2, “Compositions comprising an aryl pyrazole and/or a formamidine, methods and uses thereof” (Merial Limited, priority 2008, dated 2013).

What was measured:
[1] = tested on: fleas (Ctenocephalides felis); test: Study B: flea efficacy of Compound 1 spot-on formulations in dogs; format: in vivo
Excerpt: A separate clinical efficacy study in dogs was designed with an untreated control group and 5 test groups treated with compound 1. Each group had six dogs. Test articles were formulated as topical spot-on solutions containing compound 1, 10-20% w/v in a solvent or a combination of solvents as described above. Dogs were infested with approximately 50 ticks (Rhipicephalus sanguineus) on days −1, 7, 14, 21, 28, 35 and 42. Dogs were also infested with approximately 100 fleas (Ctenocephalides felis) on days −1, 8, 15, 22, 29, 36, and 43. Treatment was applied by parting the hair and applying the formulation directly onto the skin on one spot at the midline of the neck, between the base of the skull and the shoulder blades. […] […] It should be noted that Study A and Study B were conducted at different times and locations, and the results of each clinical study may differ from the other based on various environmental factors. Thus, the results of one clinical study should not be compared with those of another due to these factors.

[2] = tested on: fleas (Ctenocephalides felis); test: Study A: flea efficacy of Compound 1 spot-on formulations in dogs; format: in vivo
Method: An initial clinical study was conducted to test the efficacy of Compound 1 (3-cyano-1-(2-chloro-6-fluoro-4-trifluoromethylphenyl)-4-dichlorofluoromethylsulfinyl-5-methyl-1H-pyrazole) against ticks and fleas in various test formulations. Five test groups and an untreated control were evaluated. Each test group included six dogs. Compound was dissolved in a solvent or a combination of two or more solvents at 10% w/w. Test articles were formulated as topical spot-on solutions containing compound 1, 10% w/v in a solvent or a combination of solvents as described above. Dogs were infested with approximately 50 ticks (Rhipicephalus sanguineus) on days −1, 7, 14, 21, 28, 35 and 42. Dogs were also infested with approximately 100 fleas (Ctenocephalides felis) on days −1, 8, 15, 22, 29, 36, and 43. Treatment was applied by parting the hair and applying the formulation directly onto the skin on one spot at the midline of the neck, between the base of the skull and the shoulder blades. The dose rate of each of the topical solutions was 0.1 ml/kg (10 mg/kg) body weight. The efficacy of compound 1 in various formulations is shown Table 2 below.

Measured: % Efficacy against fleas

Cc1c([S+]([O-])C(F)(Cl)Cl)c(C#N)nn1-c1c(F)cc(C(F)(F)F)cc1Cl (centres unmarked) [Compound 1, 3-cyano-1-(2-chloro-6-fluoro-4-trifluoromethylphenyl)-4-dichlorofluoromethylsulfinyl-5-methyl-1H-pyrazole]
69.1%: [2]; Day 37, Trt. Group 5: 10 mg/kg in Diisopropyl adipate
80.4%: [2]; Day 37, Trt. Group 2: 10 mg/kg in Butyl acetate/octyl acetate
92.9%: [2]; Day 30, Trt. Group 5: 10 mg/kg in Diisopropyl adipate
98.8%: [1]; Day 58, Trt. Group 6: 10 mg/kg in Triacetin/diisopropyl adipate | [2]; Day 23, Trt. Group 3: 10 mg/kg in Diethylene glycol monoethyl ether (transcutol)/N-methyl-2-pyrrolidone
85.3%: [2]; Day 37, Trt. Group 3: 10 mg/kg in Diethylene glycol monoethyl ether (transcutol)/N-methyl-2-pyrrolidone
96.0%: [2]; Day 2, Trt. Group 3: 10 mg/kg in Diethylene glycol monoethyl ether (transcutol)/N-methyl-2-pyrrolidone
91.4%: [2]; Day 30, Trt. Group 3: 10 mg/kg in Diethylene glycol monoethyl ether (transcutol)/N-methyl-2-pyrrolidone
76.5%: [2]; Day 37, Trt. Group 4: 10 mg/kg in Dipropylene glycol monomethyl ether/butyl acetate
83.2%: [2]; Day 30, Trt. Group 4: 10 mg/kg in Dipropylene glycol monomethyl ether/butyl acetate
31.1%: [2]; Day 44, Trt. Group 4: 10 mg/kg in Dipropylene glycol monomethyl ether/butyl acetate
93.0%: [2]; Day 44, Trt. Group 6: 10 mg/kg in Triacetin
99.8%: [1]; Day 23, Trt. Group 2: 0.1 ml/kg (10 mg/kg) in Triacetin | [1]; Day 23, Trt. Group 3: 0.2 ml/kg (20 mg/kg) in Triacetin | [1]; Day 23, Trt. Group 5: 10 mg/kg in Diethylene glycol monoethyl ether (transcutol) | [1]; Day 23, Trt. Group 6: 10 mg/kg in Triacetin/diisopropyl adipate | [1]; Day 37, Trt. Group 2: 0.1 ml/kg (10 mg/kg) in Triacetin | [1]; Day 51, Trt. Group 2: 0.1 ml/kg (10 mg/kg) in Triacetin | [2]; Day 16, Trt. Group 3: 10 mg/kg in Diethylene glycol monoethyl ether (transcutol)/N-methyl-2-pyrrolidone
98.9%: [1]; Day 37, Trt. Group 4: 10 mg/kg in Diisopropyl adipate | [2]; Day 37, Trt. Group 6: 10 mg/kg in Triacetin
99.0%: [1]; Day 58, Trt. Group 3: 0.2 ml/kg (20 mg/kg) in Triacetin
98.0%: [2]; Day 2, Trt. Group 6: 10 mg/kg in Triacetin
99.4%: [2]; Day 23, Trt. Group 2: 10 mg/kg in Butyl acetate/octyl acetate
94.5%: [2]; Day 30, Trt. Group 2: 10 mg/kg in Butyl acetate/octyl acetate
98.5%: [1]; Day 51, Trt. Group 4: 10 mg/kg in Diisopropyl adipate
40.3%: [2]; Day 44, Trt. Group 5: 10 mg/kg in Diisopropyl adipate
99.7%: [1]; Day 30, Trt. Group 2: 0.1 ml/kg (10 mg/kg) in Triacetin | [1]; Day 51, Trt. Group 3: 0.2 ml/kg (20 mg/kg) in Triacetin | [2]; Day 30, Trt. Group 6: 10 mg/kg in Triacetin
46.9%: [2]; Day 44, Trt. Group 2: 10 mg/kg in Butyl acetate/octyl acetate
99.5%: [2]; Day 23, Trt. Group 4: 10 mg/kg in Dipropylene glycol monomethyl ether/butyl acetate
100%: [1]; Day 2, Trt. Group 2: 0.1 ml/kg (10 mg/kg) in Triacetin | [1]; Day 2, Trt. Group 3: 0.2 ml/kg (20 mg/kg) in Triacetin | [1]; Day 2, Trt. Group 4: 10 mg/kg in Diisopropyl adipate | [1]; Day 2, Trt. Group 5: 10 mg/kg in Diethylene glycol monoethyl ether (transcutol) | [1]; Day 2, Trt. Group 6: 10 mg/kg in Triacetin/diisopropyl adipate | [1]; Day 9, Trt. Group 2: 0.1 ml/kg (10 mg/kg) in Triacetin | [1]; Day 9, Trt. Group 3: 0.2 ml/kg (20 mg/kg) in Triacetin | [1]; Day 9, Trt. Group 4: 10 mg/kg in Diisopropyl adipate | [1]; Day 9, Trt. Group 5: 10 mg/kg in Diethylene glycol monoethyl ether (transcutol) | [1]; Day 9, Trt. Group 6: 10 mg/kg in Triacetin/diisopropyl adipate | [1]; Day 16, Trt. Group 2: 0.1 ml/kg (10 mg/kg) in Triacetin | [1]; Day 16, Trt. Group 3: 0.2 ml/kg (20 mg/kg) in Triacetin | [1]; Day 16, Trt. Group 4: 10 mg/kg in Diisopropyl adipate | [1]; Day 16, Trt. Group 5: 10 mg/kg in Diethylene glycol monoethyl ether (transcutol) | [1]; Day 16, Trt. Group 6: 10 mg/kg in Triacetin/diisopropyl adipate | [1]; Day 23, Trt. Group 4: 10 mg/kg in Diisopropyl adipate | [1]; Day 30, Trt. Group 3: 0.2 ml/kg (20 mg/kg) in Triacetin | [1]; Day 30, Trt. Group 4: 10 mg/kg in Diisopropyl adipate | [1]; Day 30, Trt. Group 5: 10 mg/kg in Diethylene glycol monoethyl ether (transcutol) | [1]; Day 30, Trt. Group 6: 10 mg/kg in Triacetin/diisopropyl adipate | [1]; Day 37, Trt. Group 3: 0.2 ml/kg (20 mg/kg) in Triacetin | [1]; Day 37, Trt. Group 5: 10 mg/kg in Diethylene glycol monoethyl ether (transcutol) | [1]; Day 37, Trt. Group 6: 10 mg/kg in Triacetin/diisopropyl adipate | [1]; Day 44, Trt. Group 2: 0.1 ml/kg (10 mg/kg) in Triacetin | [1]; Day 44, Trt. Group 3: 0.2 ml/kg (20 mg/kg) in Triacetin | [1]; Day 44, Trt. Group 5: 10 mg/kg in Diethylene glycol monoethyl ether (transcutol) | [1]; Day 44, Trt. Group 6: 10 mg/kg in Triacetin/diisopropyl adipate | [1]; Day 51, Trt. Group 5: 10 mg/kg in Diethylene glycol monoethyl ether (transcutol) | [1]; Day 51, Trt. Group 6: 10 mg/kg in Triacetin/diisopropyl adipate | [1]; Day 58, Trt. Group 5: 10 mg/kg in Diethylene glycol monoethyl ether (transcutol) | [2]; Day 2, Trt. Group 4: 10 mg/kg in Dipropylene glycol monomethyl ether/butyl acetate | [2]; Day 2, Trt. Group 5: 10 mg/kg in Diisopropyl adipate | [2]; Day 9, Trt. Group 2: 10 mg/kg in Butyl acetate/octyl acetate | [2]; Day 9, Trt. Group 3: 10 mg/kg in Diethylene glycol monoethyl ether (transcutol)/N-methyl-2-pyrrolidone | [2]; Day 9, Trt. Group 4: 10 mg/kg in Dipropylene glycol monomethyl ether/butyl acetate | [2]; Day 9, Trt. Group 5: 10 mg/kg in Diisopropyl adipate | [2]; Day 9, Trt. Group 6: 10 mg/kg in Triacetin | [2]; Day 16, Trt. Group 2: 10 mg/kg in Butyl acetate/octyl acetate | [2]; Day 16, Trt. Group 4: 10 mg/kg in Dipropylene glycol monomethyl ether/butyl acetate | [2]; Day 16, Trt. Group 5: 10 mg/kg in Diisopropyl adipate | [2]; Day 16, Trt. Group 6: 10 mg/kg in Triacetin | [2]; Day 23, Trt. Group 5: 10 mg/kg in Diisopropyl adipate | [2]; Day 23, Trt. Group 6: 10 mg/kg in Triacetin
38.9%: [2]; Day 44, Trt. Group 3: 10 mg/kg in Diethylene glycol monoethyl ether (transcutol)/N-methyl-2-pyrrolidone
96.7%: [1]; Day 58, Trt. Group 4: 10 mg/kg in Diisopropyl adipate
99.6%: [1]; Day 44, Trt. Group 4: 10 mg/kg in Diisopropyl adipate | [1]; Day 58, Trt. Group 2: 0.1 ml/kg (10 mg/kg) in Triacetin | [2]; Day 2, Trt. Group 2: 10 mg/kg in Butyl acetate/octyl acetate
